# Measurements taken from patent US9233109B2, “Compositions, methods of use, and methods of treatment” (UNIVERSITY OF FLORIDA RESEARCH FOUNDATION, INC., priority 2010, dated 2016).
# Like-named read-outs stand apart in the source and are kept apart here.
# Key:
# α4β2α5 nAChR = target: T1, α4β2α5 nAChR (Homo sapiens, UniProt P17787+P30532+P43681); assay: Agonist activation of α4β2α5 receptors in oocytes; format: cell-based
# T1 construct: expressed in transfected cells; host or cells: Xenopus laevis oocytes injected with cRNA
# T1 sequence (P17787 26-502): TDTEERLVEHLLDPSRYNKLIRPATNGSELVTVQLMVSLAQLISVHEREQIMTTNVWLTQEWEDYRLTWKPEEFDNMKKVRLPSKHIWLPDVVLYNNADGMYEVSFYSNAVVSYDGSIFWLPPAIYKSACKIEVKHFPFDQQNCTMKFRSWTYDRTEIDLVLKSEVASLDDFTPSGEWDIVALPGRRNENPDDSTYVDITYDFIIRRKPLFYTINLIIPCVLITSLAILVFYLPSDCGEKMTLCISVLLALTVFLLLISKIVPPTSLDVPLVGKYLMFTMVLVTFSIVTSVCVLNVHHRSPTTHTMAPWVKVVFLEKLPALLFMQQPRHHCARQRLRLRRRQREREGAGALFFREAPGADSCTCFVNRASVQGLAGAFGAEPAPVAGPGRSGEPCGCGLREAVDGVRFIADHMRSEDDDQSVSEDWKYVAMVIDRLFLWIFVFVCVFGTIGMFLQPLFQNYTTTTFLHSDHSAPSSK
# T1 sequence (P43681 29-627 limits assumed): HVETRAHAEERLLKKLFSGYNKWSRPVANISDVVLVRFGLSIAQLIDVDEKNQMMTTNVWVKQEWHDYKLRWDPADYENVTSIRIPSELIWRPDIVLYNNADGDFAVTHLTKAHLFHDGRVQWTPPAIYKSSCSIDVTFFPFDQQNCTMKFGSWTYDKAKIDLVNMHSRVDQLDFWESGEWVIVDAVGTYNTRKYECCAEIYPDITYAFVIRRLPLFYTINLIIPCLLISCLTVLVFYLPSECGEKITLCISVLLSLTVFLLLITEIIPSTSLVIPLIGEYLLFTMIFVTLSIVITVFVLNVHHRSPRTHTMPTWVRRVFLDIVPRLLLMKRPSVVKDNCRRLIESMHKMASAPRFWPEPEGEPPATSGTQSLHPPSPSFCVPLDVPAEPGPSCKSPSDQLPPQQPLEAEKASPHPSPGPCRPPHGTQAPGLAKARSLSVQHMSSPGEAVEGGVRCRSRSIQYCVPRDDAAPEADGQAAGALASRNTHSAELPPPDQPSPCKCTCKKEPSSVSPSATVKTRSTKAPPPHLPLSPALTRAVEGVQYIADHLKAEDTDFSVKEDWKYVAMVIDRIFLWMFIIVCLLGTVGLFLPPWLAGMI
# T1 sequence (P30532 23-468): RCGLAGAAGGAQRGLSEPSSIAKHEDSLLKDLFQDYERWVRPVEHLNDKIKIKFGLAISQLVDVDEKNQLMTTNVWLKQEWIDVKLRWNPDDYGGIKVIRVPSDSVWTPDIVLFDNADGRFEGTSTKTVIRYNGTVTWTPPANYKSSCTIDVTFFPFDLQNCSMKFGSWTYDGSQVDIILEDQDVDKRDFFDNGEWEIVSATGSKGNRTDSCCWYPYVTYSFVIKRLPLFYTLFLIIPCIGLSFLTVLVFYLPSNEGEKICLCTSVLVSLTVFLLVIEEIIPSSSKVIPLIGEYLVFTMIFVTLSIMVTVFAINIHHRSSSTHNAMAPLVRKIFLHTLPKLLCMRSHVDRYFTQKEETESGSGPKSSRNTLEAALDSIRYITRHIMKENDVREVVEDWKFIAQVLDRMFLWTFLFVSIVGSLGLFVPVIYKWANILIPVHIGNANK
# Text: (§1) Recently, attention has been drawn to α5 as a member of a gene cluster associated with high risk for cancer and heavy smoking (Saccone et al., 2007). In the periphery, α5 is most likely expressed in association with the other members of its gene cluster, α3 and β4.
# α7 nAChR [1] = target: T2, α7 nAChR (Homo sapiens, UniProt P36544); assay: Bath application of test compound: modulation of ACh-evoked net charge responses in Xenopus oocytes; format: cell-based
# T2 construct: expressed in transfected cells; host or cells: Xenopus laevis oocytes injected with cRNA
# T2 sequence (P36544 23-502): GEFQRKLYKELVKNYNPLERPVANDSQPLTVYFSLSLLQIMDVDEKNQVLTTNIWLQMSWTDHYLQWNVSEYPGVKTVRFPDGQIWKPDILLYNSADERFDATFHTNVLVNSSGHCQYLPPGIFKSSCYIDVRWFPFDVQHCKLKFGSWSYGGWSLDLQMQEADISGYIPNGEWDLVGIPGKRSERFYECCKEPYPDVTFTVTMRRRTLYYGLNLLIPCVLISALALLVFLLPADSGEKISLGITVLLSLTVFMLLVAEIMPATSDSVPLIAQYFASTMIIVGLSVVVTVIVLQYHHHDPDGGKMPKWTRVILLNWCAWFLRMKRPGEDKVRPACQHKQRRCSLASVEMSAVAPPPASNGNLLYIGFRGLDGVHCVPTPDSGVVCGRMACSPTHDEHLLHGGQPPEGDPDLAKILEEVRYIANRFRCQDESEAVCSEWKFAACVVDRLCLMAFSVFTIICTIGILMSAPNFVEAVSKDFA
# Method: (§2) We have extended this approach to defined receptor subtypes expressed in Xenopus oocytes. Experiments were conducted on cells expressing HS α4β2 (α4(2)β2(3)), LS α4β2 (α4(3)β2(2)), or α7 nAChR.
# (§3) cDNA: Human nAChR receptor clones and concatamers were obtained from Dr. Jon Lindstrom (University of Pennsylvania, Philadelphia Pa.). The human RIC-3 clone, obtained from Dr. Millet Treinin (Hebrew University, Jerusalem Israel), was co-injected with α7 to improve the levels and speed of receptor expression.
# (§4) Oocyte preparation: Oocytes were surgically removed from mature Xenopus laevis frogs and injected with 50 nl (5-20 ng) of appropriate nAChR subunit cRNAs as described previously (Horenstein et al., 2008).
# (§5) Experiments were conducted using OpusXpress 6000A (Molecular Devices, Union City Calif.) and analyzed as described previously (Papke and Papke, 2002; Horenstein et al., 2008; Papke and Stokes, 2010).
# (§6) Initial experiments were run for 50 minutes after the introduction of the experimental compounds into the bath.
# α4(2)β2(2)α5 nAChR [2] = target: T3, α4(2)β2(2)α5 nAChR (Homo sapiens, UniProt P17787+P30532+P43681); assay: Bath application of test compound: inhibition of ACh-evoked responses in Xenopus oocytes; format: cell-based
# T3 construct: expressed in transfected cells; host or cells: Xenopus laevis oocytes injected with cRNA
# T3 sequence (P17787 26-502): as the sequence (P17787 26-502) above
# T3 sequence (P43681 29-627 limits assumed): as the sequence (P43681 29-627 limits assumed) above
# T3 sequence (P30532 23-468): as the sequence (P30532 23-468) above
# Method: as §3, §4, §5, §6, §1
# [3] = target: T4, LS α4β2 (α4(3)β2(2)) nAChR (Homo sapiens, UniProt P17787+P43681); assay: Bath application of test compound: inhibition of ACh-evoked peak currents in Xenopus oocytes; format: cell-based
# T4 construct: expressed in transfected cells; host or cells: Xenopus laevis oocytes injected with cRNA
# T4 sequence (P17787 26-502): as the sequence (P17787 26-502) above
# T4 sequence (P43681 29-627 limits assumed): as the sequence (P43681 29-627 limits assumed) above
# T4 sequence (P43681 29-627 limits assumed): as above
# Method: as §2, §3, §4, §5, §6
# [4] = target: T5, HS α4β2 (α4(2)β2(3)) nAChR (Homo sapiens, UniProt P17787+P43681); assay: as above; format: cell-based
# T5 construct: expressed in transfected cells; host or cells: Xenopus laevis oocytes injected with cRNA
# T5 sequence (P17787 26-502): as the sequence (P17787 26-502) above
# T5 sequence (P43681 29-627 limits assumed): as the sequence (P43681 29-627 limits assumed) above
# T5 sequence (P17787 26-502): as the sequence (P17787 26-502) above
# Method: as §2, §3, §4, §5, §6
# α7 nAChR [5] = target: T2, α7 nAChR; assay: Acute co-application of ACh and S 24795, model fit of net charge responses in oocytes; format: cell-based
# Text: (§7) FIG. 2.1 illustrates a model applied to the activation of nAChR by simultaneous co-applications of the full agonist “a” and a partial agonist “p”. […] The IMax of the full agonist is assigned a value of 1. The first and second terms of the equation represent the activation produced by the full agonist and partial agonists, respectively, scaled by their potencies and weighted by receptor availability. The third term allows noncompetitive effects of the partial agonist. If such noncompetitive activity is inhibitory, then ni is assigned a negative value.
# (§8) Acute responses to agonist/partial agonist applications were fit with a general non-linear regression model, implemented as an option in a Windows data analyses and graphical presentation program (CAS Data Forge). The terms na, np, ni, Rmaxp, Inmaxp, EC50a, EC50p, and IC50p were given starting estimates based on the data obtained with the drugs applied separately. Tolerance factor (typically 1×10^−5) range limits for each parameter were specified. […] A predicted matrix was then calculated for each cell of the matrix, based on the a and p concentrations, the set of parameters listed above, and the governing equation. The residuals across all cells were calculated, and an iterative process was utilized to revise the parameters to minimize the residuals and allow the estimates to be revised accordingly. When the difference of estimates for any given parameter for consecutive iterations fell below the tolerance factor, that parameter was fixed at the last estimate. When all parameters were fixed or no convergent solution was found, the process stopped, and the set of parameters representing the best fit along with the resulting matrix was provided.
# (§9) The Imax for the full agonist was constrained to 1 while the Imax for the partial agonist was a free parameter <1.0.
# (§10) Curve fit values for the drugs when applied alone were used as seeds for the competitive interactions.
# [6] = test system: α4(3)β2(2), α4(2)β2(3) and α7 nAChR; assay: Baseline shifts / steady-state currents in the presence of bath-applied 3-pyr-Cyt, oocytes; format: cell-based, human; details: bath application
# Method: FIG. 2.8 is a summary of the effects of bath-applied 3-pyr-Cyt on α4(3)β2(2) and α4(2)β2(3) and α7 nAChR. Bath application experiments were conducted as described for cytisine, varenicline, and nicotine.
# One such compound is 3-(pyridin-3′-yl)-cytisine (3-pyr-Cyt), an agent proposed to have very little likelihood of off-target α7 activity (Mineur et al., 2009).
# α4β2 receptors = details: cited from earlier work
# [7] = Mineur et al., 2009; cited from earlier work
# α4(2)β2(2)α5 nAChR [8] = target: T3, α4(2)β2(2)α5 nAChR; assay: Mecamylamine-sensitive steady-state activation during bath application, oocytes; format: cell-based; details: bath concentration 1 μM
# Text: (§11) In our bath application experiments we frequently saw small responses at the beginning of the bath applications, and sometimes there were significant shifts in baseline holding current that occurred over the long periods of recording. While increases in baseline current would be consistent with the stimulation of steady-state currents, baseline shifts can occur for other reasons as well, especially if the quality of the voltage clamp diminished over a long period of recording.
# (§12) Even after just 30 minutes of continual bath application, a large shift in baseline was apparent. […] Table 3 provides a summary of the mecamylamine-sensitive steady-state currents measured for each of the drug-receptor combinations associated with drifting baselines.
# α4(2)β2(3) nAChR = target: T6, α4(2)β2(3) nAChR (Homo sapiens, UniProt P17787+P43681); assay: as above; format: cell-based; details: bath concentration 100 nM
# T6 construct: expressed in transfected cells; host or cells: Xenopus laevis oocytes injected with cRNA
# T6 sequence (P17787 26-502): as above
# T6 sequence (P43681 29-627 limits assumed): as the sequence (P43681 29-627 limits assumed) above
# T6 sequence (P17787 26-502): as the sequence (P17787 26-502) above
# Text: as §11, §12
# α4(3)β2(2) nAChR [9] = target: T7, α4(3)β2(2) nAChR (Homo sapiens, UniProt P17787+P43681); assay: as above; format: cell-based; details: bath concentration 300 nM
# T7 construct: expressed in transfected cells; host or cells: Xenopus laevis oocytes injected with cRNA
# T7 sequence (P17787 26-502): as above
# T7 sequence (P43681 29-627 limits assumed): as the sequence (P43681 29-627 limits assumed) above
# T7 sequence (P43681 29-627 limits assumed): as above
# Text: as §11, §12
# α4(3)β2(2) nAChR [10] = target: T7, α4(3)β2(2) nAChR; assay: Acute co-application of ACh and cytisine, model fit of peak current responses in oocytes; format: cell-based
# Text: as §7, §8, §9, §10
# human α7 receptors = human α7 receptors (Homo sapiens, UniProt P36544); details: cited from earlier work
# Sequence of human α7 receptors (P36544 23-502): as the sequence (P36544 23-502) above
# [11] = preliminary findings of clinical trials, schizophrenics; cited from earlier work
# [12] = IC50, inhibition of ACh-evoked responses by prolonged bath application
# [13] = read-out: IC50 for the inhibition of ACh evoked responses by bath applications of agonists and partial agonists, Table 2, after 30±4 min bath application, 30 μM ACh
# [14] = read-out: IC50 for the inhibition of ACh evoked responses by bath applications of agonists and partial agonists, Table 2, after 30±4 min bath application, 10 μM ACh
# [15] = noncompetitive inhibition factor
# [16] = noncompetitive inhibition factor, read-out: Inhibition IC50 of the partial agonist (best fit)
# [17] = relative to ACh maximum, ACh constrained to 1
# [18] = Example 1, average of 30-40 min time points, 60 μM ACh, net charge, read-out: IC50, inhibition of ACh-evoked responses by prolonged bath application
# [19] = IC50 for the inhibition of ACh evoked responses by bath applications of agonists and partial agonists
# [20] = read-out: IC50, inhibition of ACh-evoked responses by prolonged bath application
structure (smiles),measurement,setting,value
"CN1CCCC1c1cccnc1 (stereo not shown) [Nicotine, nicotine]","efficacy for α4β2α5 receptors, % that of ACh",α4β2α5 nAChR,approximately 35%
C[N+](C)(C)CCO [choline],IC50,α7 nAChR [1]; [12],6.7 ± 1.2 µM
"c1cnc2cc3c(cc2n1)C1CNCC3C1 [Varenicline, 7,8,9,10-tetrahydro-6,10-methano-6H-pyrazino (2,3-h)(3) benzazepine]",inhibition at 1 µM,α4(2)β2(2)α5 nAChR [2]; read-out: inhibition of transient ACh-evoked responses,100%
same,"efficacy for α4β2α5 receptors, % that of ACh",α4β2α5 nAChR,9±1%
"C[n+]1ccccc1CC(=O)c1ccc(Br)cc1 [S 24795, 2-[2-(4-bromophenyl)-2-oxoethyl]-1-methylpyridinium]",IC50,"α7 nAChR [1]; read-out: IC50 for the inhibition of ACh evoked responses by bath applications of agonists and partial agonists, Table 2, after 30±4 min bath application, 60 μM ACh, * = inhibition following a phase of potentiation",15 µM
same,IC50,[3]; [13],36 µM
same,IC50,[4]; [14],53 µM
same,"Activation n (Hill coefficient, best fit)",α7 nAChR [5],0.85
same,best fit IC50 relative to EC50 (higher),α7 nAChR [5],70 fold
same,EC50,"α7 nAChR [5]; net charge, read-out: Activation EC50 (best fit)",14 µM
same,Inhibition Inmax of the partial agonist (best fit),α7 nAChR [5]; [15],1.0
same,"Inhibition n (Hill coefficient, best fit)",α7 nAChR [5]; [15],0.26
same,IC50,α7 nAChR [5]; [16],1000 µM
same,Activation Rmax (best fit),α7 nAChR [5]; [17],0.20
"O=c1c(-c2cccnc2)ccc2n1C[C@@H]1CNC[C@H]2C1 [3-pyr-Cyt, 3-(pyridin-3′-yl)-cytisine]",IC50,"α4(2)β2(2)α5 nAChR [2]; read-out: IC50 for the inhibition of ACh evoked responses by bath applications of agonists and partial agonists, Table 2, after 30±4 min bath application, 3 μM ACh",2.3 µM
same,IC50,α7 nAChR [1]; [18],103 ± 25 µM
same,concentration at which significant inhibition of α7-mediated responses was achieved,α7 nAChR [1]; highest concentration tested,100 µM
same,baseline shifts or steady-state currents,[6],no baseline shifts or steady-state currents
same,IC50,"[3]; Example 1, average of 30-40 min time points, 30 μM ACh, peak currents, read-out: IC50, inhibition of ACh-evoked responses by prolonged bath application",5.4 ± 4 µM
same,IC50,[3]; [13],16 µM
same,effect on ACh-evoked responses at low concentration,[4]; 30 nM in bath,partial inhibition
same,IC50,"[4]; Example 1, average of 30-40 min time points, 10 μM ACh, peak currents, read-out: IC50, inhibition of ACh-evoked responses by prolonged bath application",0.653 ± 0.5 µM
same,IC50,[4]; [14],0.6 ± 0.5 µM
"O=c1cccc2n1C[C@@H]1CNC[C@H]2C1 [Cytisine, cytisine]","efficacy for α4β2 receptors, % that of ACh",α4β2 receptors,< 20%
same,potency at reducing immobility compared with mecamylamine,[7],equipotent as the pure antagonist mecamylamine
same,IC50,α4(2)β2(2)α5 nAChR [2],0.0032 ± 0.0016 µM
same,Mecamylamine-sensitive steady-state activation relative to ACh maximum evoked transient responses,α4(2)β2(2)α5 nAChR [8],2.5 ± 0.5%
same,Mecamylamine-sensitive steady-state activation relative to ACh maximum evoked transient responses,α4(2)β2(3) nAChR,1.4 ± 0.1%
same,Mecamylamine-sensitive steady-state activation relative to ACh maximum evoked transient responses,α4(3)β2(2) nAChR [9],1.1 ± 0.2%
same,"Activation n (Hill coefficient, best fit)",α4(3)β2(2) nAChR [10],0.61
same,best fit IC50 relative to EC50,α4(3)β2(2) nAChR [10],three-fold lower
same,Inhibition Inmax of the partial agonist (best fit),α4(3)β2(2) nAChR [10]; [15],0.7
same,"Inhibition n (Hill coefficient, best fit)",α4(3)β2(2) nAChR [10]; [15],1.7
same,IC50,α4(3)β2(2) nAChR [10]; [16],32 µM
same,EC50,"α4(3)β2(2) nAChR [10]; peak current, read-out: Activation EC50 (best fit)",88 µM
same,Activation Rmax (best fit),α4(3)β2(2) nAChR [10]; [17],0.35
same,EC50,α4β2α5 nAChR,0.018 ± 0.009 µM
same,"efficacy for α4β2α5 receptors, % that of ACh",α4β2α5 nAChR,6±1%
same,IC50,α7 nAChR [1]; [12],0.3 ± 0.2 µM
same,IC50,α7 nAChR [1]; [19],1.2 µM
same,IC50,[3]; [12],0.085 ± 0.044 µM
same,IC50,[3]; [19],0.027 ± 0.014 µM
same,IC50,[4],0.008 ± 0.005 µM
"COc1ccc(/C=C2\CCCN=C2c2cccnc2)c(OC)c1 [GTS-21, 3-(2,4-dimethoxybenzylidene)anabaseine]",EC50,"human α7 receptors; Papke and Papke, 2002, read-out: EC50 for transient receptor activation",~6 µM
same,"efficacy for human α7 receptors, % that of ACh",human α7 receptors,about 20%
same,clinical ratings of negative symptoms,[11],improved clinical ratings of negative symptoms
same,IC50,α7 nAChR [1],1.3 µM
same,IC50,α7 nAChR [1]; [18],1.2 ± 0.4 µM
same,α7 ACh-evoked responses above the baseline controls,α7 nAChR [1]; bath application of 30 nM,37±15%
same,bath concentrations at which α7 ACh-evoked responses were inhibited,"α7 nAChR [1]; long-term bath application, net charge",greater than 300 nM
same,IC50,[3]; [20],1 ± 0.4 µM
same,IC50,[4]; [20],0.17 ± 0.1 µM
